Biological target: T1, Human recombinant CD38 (Homo sapiens, UniProt P28907)
T1 construct: purchased BPS Bioscience
T1 sequence (P28907 1-300): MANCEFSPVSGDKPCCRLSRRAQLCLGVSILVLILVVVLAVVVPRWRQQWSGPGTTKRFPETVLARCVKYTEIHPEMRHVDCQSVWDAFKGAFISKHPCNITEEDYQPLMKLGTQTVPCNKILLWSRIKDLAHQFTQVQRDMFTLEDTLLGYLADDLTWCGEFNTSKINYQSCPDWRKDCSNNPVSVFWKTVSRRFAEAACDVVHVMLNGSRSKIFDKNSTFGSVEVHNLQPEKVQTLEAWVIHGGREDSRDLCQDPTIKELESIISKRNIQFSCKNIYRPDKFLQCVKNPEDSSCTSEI
Experiment: CD38 hydrolase inhibition assay (ε-NAD substrate, fluorescence)
Type: biochemical
Conditions: 0.2 ng/μL CD38, 100 μM ε-NAD, 15 m at room temperature, excitation 300 nm, emission 410 nm
Procedure: Example 9: CD38 Hydrolase Inhibition Assay
The CD38 hydrolase inhibition assay measures the glycohydrolase activity of CD38, using an NAD analog as substrate and measuring formation of a fluorescent ADP ribose analog. A 4× buffer was prepared with 1M sucrose and 160 mM Tris-HCl at pH 7.4, for a final assay concentration of 250 mM sucrose and 40 mM Tris-HCl. The 4× solution was kept at 4° C. and warmed to room temperature before use. Tween20 was added to 1× buffer for a final concentration of 0.05%. Human recombinant CD38 (BPS Bioscience) was diluted to 0.4 ng/μL in 1× buffer and 12.5 μL added to each plate well. Inhibitors were added and DMSO content was normalized to the highest concentration on the plate, with an upper limit of 0.5%. Finally, ε-NAD was diluted to 200 μM in 1× buffer and 12.5 μL added to each plate well, for final well concentrations of 0.2 ng/μL CD38 and 100 μM ε-NAD. Plates were covered and incubated at room temperature for 15 m, and then read on a plate reader using excitation 300 nm and emission 410 nm. […] IC50s for test compounds were determined either using GraphPad Prism software v9.3, or CDD Vault.

Row | SMILES | IC50 [nM]
1 | COCCO[C@H]1CC[C@H](NC(=O)c2cc(-c3cnn(C)c3)cc(-c3cncs3)c2)CC1 [Compound 107, 3-(1-methylpyrazol-4-yl)-N-[(trans)-4-(2-methoxyethoxy)cyclohexyl]-5-(1,3-thiazol-5-yl)benzamide] | < 100
2 | CO[C@H]1CC[C@H](NS(=O)(=O)c2cc(C)cc(-n3ccnc3)c2)CC1 [Compound 108, 3-(imidazol-1-yl)-5-methyl-N-[(trans)-4-methoxycyclohexyl]benzene sulfonamide] | > 1000
3 | CO[C@H]1CC[C@H](NC(=O)c2cc(-c3cncs3)cc(N3CCC[C@@H]3CO)c2)CC1 [Compound 105, 3-[(2R)-2-(hydroxymethyl)pyrrolidin-1-yl]-N-[(trans)-4-methoxycyclohexyl]-5-(1,3-thiazol-5-yl)benzamide] | 100 to 1000

The next lines start with the values.

Row | IC50 [nM] | SMILES
4 | 100 to 1000 | CO[C@H]1CC[C@H](NC(=O)c2cc(C)cc(-n3ccnc3)c2)CC1 [Compound 101, 3-(imidazol-1-yl)-5-methyl-N-[(trans)-4-methoxycyclohexyl]benzamide]
5 | 100 to 1000 | CO[C@H]1CC[C@H](NC(=O)c2cc(N3CC[C@H](O)C3)cc(-n3ccnc3)c2)CC1 [Compound 104, 3-[(3S)-3-hydroxypyrrolidin-1-yl]-5-(imidazol-1-yl)-N-[(trans)-4-methoxycyclohexyl]benzamide]
6 | < 100 | CO[C@H]1CC[C@H](NC(=O)c2cc(-c3cnn(C)c3)cc(-n3ccnc3)c2)CC1 [Compound 102, 3-(imidazol-1-yl)-5-(1-methylpyrazol-4-yl)-N-[(trans)-4-methoxycyclohexyl]benzamide]

Reference: patent US20260174742A1, “INHIBITORS OF CYCLIC ADP RIBOSE HYDROLASE AND METHODS OF USE THEREOF” (Flagship Pioneering Innovations VI, LLC, priority 2022, published 2026)
